Experimental findings from ChEMBL document CHEMBL4665675 (J Med Chem, 2020) are described below.

One assay has as its system KB. Nature of the assay: Antiproliferative activity against human KB cells incubated for 36 hrs. In kind it is functional, cell-based.
Another assay relates to RPMI-7951. Kind of assay: Antiproliferative activity against human RPMI-7951 cells incubated for 36 hrs. It counts as functional, cell-based. To be noted: RPMI-7951, 36 h.
Assay [1] deals with P388. Kind of assay: Antiproliferative activity against mouse P388 cells incubated for 36 hrs. It counts as functional, cell-based. To be noted: P388, 36 h.
The next assay concerns HCT-8. Kind of assay: Antiproliferative activity against human HCT-8 cells incubated for 36 hrs. It counts as functional, cell-based. To be noted: HCT-8, 36 h.
Assay [2] is described as follows: Inhibition of bovine brain tubulin polymerization preincubated for 15 mins followed by GTP addition. Further details: species or system Bos taurus.
A further assay concerns TE-671. Kind of assay: Antiproliferative activity against human TE-671 cells incubated for 36 hrs. It counts as functional, cell-based. As to conditions: TE-671, 36 h.
Assay [3] relates to A549. Nature of the assay: Antiproliferative activity against human A549 cells incubated for 36 hrs. It counts as functional, cell-based. As to conditions: A549, 36 h.
A further assay has as its system L1210. Kind of assay: Cytotoxicity against mouse L1210 cells incubated for 24 hrs. In kind it is functional, cell-based. To be noted: L1210, 24 h.
For the next assay, the species on record is Bos taurus. Nature of the assay: Inhibition of [3H]colchicine binding to bovine brain tubulin at 5 uM incubated for 10 mins by DEAE-cellulose filter method relative to control.
The test system of assay [4] is A549. Kind of assay: Cytotoxicity against human A549 cells by MTT assay. In kind it is functional, cell-based.
In a further assay the test system is PC-3. Nature of the assay: Cytotoxicity against human PC-3 cells incubated for 48 hrs by MTT assay. In kind it is functional, cell-based. To be noted: PC-3, 48 h.
Assay [5] concerns HEK293. Nature of the assay: Cytotoxicity against HEK293 cells incubated for 48 hrs by MTT assay. To be noted: Homo sapiens, HEK293, 48 h. It counts as cell-based.
The test system of the next assay is HeLa. Kind of assay: Cytotoxicity against human HeLa cells after 24 to 72 hrs by Cell Titer Blue assay. It counts as cell-based.
Assay [6] can be described thus: Cytotoxicity against human BHP-1 cells incubated for 48 hrs by MTT assay. It counts as cell-based. To be noted: BHP1, 48 h.
The nature of assay [7]: Inhibition of porcine tubulin polymerization by UV/visible spectrophotometry. Further details: species or system Sus scrofa.
The test system of assay [8] is A549. Kind of assay: Cytotoxicity against human A549 cells incubated for 48 hrs by MTT assay. In kind it is functional, cell-based. To be noted: A549, 48 h.
For the next assay, the system named is HT-29. Nature of the assay: Cytotoxicity against human HT-29 cells incubated for 48 hrs by MTT assay. In kind it is functional, cell-based. As to conditions: HT-29, 48 h.
Assay [9] is described as follows: Antiproliferative activity against human KB-8511 cells incubated for 96 hrs by spectrophotometric method. It counts as functional, cell-based. As to conditions: KB-ChR-8-5-11, 96 h.
Assay [10] has as its system P388. Kind of assay: Antiproliferative activity against mouse P388 cells incubated for 72 hrs by Coulter counter method. In kind it is functional, cell-based. To be noted: P388, 72 h.
A further assay deals with KB 3-1. Kind of assay: Antiproliferative activity against human KB-31 cells incubated for 96 hrs by spectrophotometric method. In kind it is functional, cell-based. As to conditions: KB 3-1, 96 h.
The test system of a further assay is MIA PaCa-2. Kind of assay: Cytotoxicity against human Mia PaCa-2 cells incubated for 48 hrs by MTT assay. It counts as functional, cell-based. As to conditions: MIA PaCa-2, 48 h.
The subject of another assay is BXPC-3. Nature of the assay: Cytotoxicity against human BxPC-3 cells incubated for 48 hrs by MTT assay. It counts as functional, cell-based. To be noted: BXPC-3, 48 h.
Assay [11] is described as follows: Cytotoxicity against human HGF-1 cells incubated for 48 hrs by MTT assay. To be noted: HGF1, 48 h. In kind it is cell-based.
The subject of assay [12] is HEK293. Nature of the assay: Cytotoxicity against HEK293 cells. It counts as cell-based. To be noted: Homo sapiens.
Assay [13] concerns BJAB. Kind of assay: Antiproliferative activity against human BJAB cells incubated for 24 hrs by cell counting based method. It counts as functional.
The test system of assay [14] is NALM-6. Nature of the assay: Antiproliferative activity against human Nalm-6 cells incubated for 24 hrs by cell counting based method. In kind it is functional. To be noted: NALM-6, 24 h.
The subject of assay [15] is BJAB. Kind of assay: Induction of apoptosis in human BJAB cells at 5 nM incubated for 72 hrs by flow cytometric method relative to control. In kind it is functional.
For a further assay, the system named is MCF7. Kind of assay: Induction of apoptosis in human MCF7 cells at 3 nM incubated for 72 hrs by flow cytometric method. In kind it is functional.
The test system of assay [16] is NALM-6. Nature of the assay: Induction of apoptosis in human Nalm-6 cells at 5 nM incubated for 72 hrs by flow cytometric method relative to control. In kind it is functional.
The next assay deals with Jurkat. Kind of assay: Cytotoxicity against human Jurkat cells. It counts as functional, cell-based.
A further assay concerns HaCaT. Nature of the assay: Cytotoxicity against human HaCaT cells. It counts as functional, cell-based.
Another assay relates to HBL-100. Nature of the assay: Cytotoxicity against human HBL100 cells. It counts as functional, cell-based.
Another assay has as its system K562. Nature of the assay: Cytotoxicity against human K562 cells. In kind it is functional, cell-based.
Assay [17] concerns BJAB. Nature of the assay: Cytotoxicity against human BJAB cells. In kind it is functional, cell-based.
Assay [18] is described as follows: Inhibition of DNA topoisomerase2 (unknown origin). Further details: species or system Homo sapiens.
The species entered for a further assay is Rattus norvegicus. Kind of assay: Inhibition of [3H]colchicine binding to rat brain tubulin at 25 uM relative to control.
The test system of assay [19] is SK-BR-3. Nature of the assay: Cytotoxicity against human SK-BR-3 cells assessed as reduction in cell viability incubated for 72 hrs in presence of trastuzumab-iCME by flow cytometry. In kind it is functional, cell-based. To be noted: SK-BR-3, 72 h.
Assay [20] relates to SK-BR-3. Nature of the assay: Cytotoxicity against human SK-BR-3 cells assessed as reduction in cell viability incubated for 72 hrs by flow cytometry. It counts as functional, cell-based. As to conditions: SK-BR-3, 72 h.

Each structure is given as a SMILES string. Where a SMILES comes first, the peptide text is derived from it. [ ]: non-standard residue; d: D form. The star is where a group is joined. Cholesteryloxycarbonyl = CC(C)CCC[C@@H](C)[C@H]1CC[C@H]2[C@@H]3CC=C4C[C@@H](OC(=O)*)CC[C@]4(C)[C@H]3CC[C@]12C; PEG3 = NCCOCCOCCOCCC(=O)O; Aib = CC(C)(N)C(=O)O; βAla = NCCC(=O)O Where only a bound is given, the exact number is not on record here.

As for `C=C1Cc2cc(OC)c(OC)c(OC)c2-c2ccc(SC)c(=O)cc21`, the IC50 was found to be 140 nM in the assay with KB; 0.084 nM in the assay on RPMI-7951; 22 nM in the assay with P388 [1]; 160 nM with HCT-8; 2400 nM in [2]; 0.084 nM in the assay with TE-671. Also, the 50% inhibitory concentration (IC50) in the assay on A549 [3] was 252 nM.
Consider `COc1c2c(cc3c1-c1ccc(OC)c(=O)cc1[C@@H](NC(C)=O)CC3)OCO2`, for which the IC50 with L1210 came to 20 nM. This molecule gave an inhibition in the assay filed under Bos taurus of 54%.
Regarding `COc1cc2c(c(OC)c1OC)-c1ccc(OC)c(=O)cc1[C@@H](NC(=O)CCCCCC(=O)OC1C3CC4CC(C3)CC1C4)CC2` (some centres not stated), the 50% inhibitory concentration (IC50) in the assay on A549 [4] was not above 5 nM.
On to `COc1cc2c(c(OC)c1OC)-c1ccc(OC)c(=O)cc1[C@@H](NC(C)=O)CC2` [COLCHICINE], for which the half-inhibitory concentration (IC50) in the assay on PC-3 was found to be 42 nM; with HEK293 [5], 42 nM; in the assay with HeLa, 58 nM; in assay [6], 42 nM; in [7] it was 3900 nM; in the assay on A549 [8], 42 nM. The half-maximal inhibitory concentration (IC50) in the assay on HT-29 is 42 nM; in assay [9], 540 nM; with P388 [10], 29 nM; in the assay with KB 3-1 it was 9 nM; with MIA PaCa-2 it was 42 nM; with BXPC-3, 42 nM. The molecule also had an IC50 in assay [11] of 42 nM.
On to `COc1cc2c(c(OC)c1OC)-c1ccc3[nH]c(C)c(C)c3c1[C@@H](NC(C)=O)CC2`, for which, in the assay with HEK293 [12], half-maximal inhibition (IC50) required 2000 nM.
In the case of `COc1cc2c(c(OC)c1OC)C1=C(C=C(O)C(=O)CC1)CO[C@@H]2C`, the IC50 in the assay with BJAB [13] and in the assay on NALM-6 [14] was 1000 nM throughout.
For the molecule `COc1cc2c(c(OC)c1OC)-c1ccc(Nc3ccc(Cl)c(C(F)(F)F)c3)c(=O)cc1[C@@H](NC(C)=O)CC2`, the IC50 (with PC-3; in the assay with HEK293 [5]; in assay [6]; in the assay on A549 [8]; in the assay on HT-29; in the assay on MIA PaCa-2) was 35 nM each time. Moreover, the IC50 (in the assay on BXPC-3; in assay [11]) was 35 nM in each case.
In the assay with A549 [4], `COc1cc2c(c(OC)c1OC)-c1ccc(OC)c(=O)cc1[C@@H](NC(=O)CCCCCCC(=O)C1C3CC4CC(C3)CC1C4)CC2` (some centres not stated) came in with an IC50 not above 5 nM.
As to `CCOC(=O)OC[C@H]1Cc2cc(OC)c(OC)c(OC)c2-c2ccc(SC)c(=O)cc21`, the IC50 in the assay on KB was 11 nM; in the assay with RPMI-7951 it was 0.001 nM; in the assay on P388 [1], 16 nM; in the assay with HCT-8, 179 nM; in assay [2], 3700 nM; with TE-671, 0.001 nM. The molecule further yielded an IC50 in the assay on A549 [3] of 0.001 nM.
Regarding `C=C1Cc2cc(OC)c(OC)c(OC)c2-c2ccc(OC)c(=O)cc21`, the Activity with BJAB [15] was determined as 48%; with MCF7 it was 62%; in the assay on NALM-6 [16], 71%.
In the case of `CCCCCCCCCCCCCCCCCC(=O)OCc1cn([C@H]2CCc3cc(OC)c(OC)c(OC)c3-c3ccc(OC)c(=O)cc32)nn1`, the concentration for half-maximal inhibition (IC50) with Jurkat, with HaCaT, in the assay with HBL-100, in the assay with K562 and in the assay on BJAB [17] was 3.5 nM throughout.
For the molecule `CCCCCCCCCCCCCCCC(=O)OCc1cn([C@H]2CCc3cc(OC)c(OC)c(OC)c3-c3ccc(OC)c(=O)cc32)nn1`, the half-maximal inhibitory concentration (IC50) in the assay with Jurkat, in the assay on HaCaT, in the assay with HBL-100, with K562 and with BJAB [17] was 3.5 nM in each case.
The molecule `CSc1ccc2c(cc1=O)[C@@H](NC(C)=O)CCc1cc(O)c(O)c(O)c1-2` displayed an IC50 in assay [18] of 9000 nM.
In the assay listed under Rattus norvegicus, `COc1cc2c(c(OC)c1OC)-c1cccc(=O)cc1[C@@H](NC(C)=O)CC2` showed an inhibition of 87%.
On to `COc1cc2c(c(OC)c1OC)-c1ccc(SC)c(=O)cc1[C@@H](CO)C2`, for which the IC50 with KB was determined as 144 nM; in the assay with RPMI-7951, 134 nM; in the assay with P388 [1] it was 144 nM; with HCT-8 it was 160 nM; in assay [2], 3600 nM; with TE-671, 1320 nM. Also, the 50% inhibitory concentration (IC50) with A549 [3] turned out to be 240 nM.
With `COc1ccc2c(c1O)COCc1cc(OC)c(OC)c(OC)c1-2`, in [7], the midpoint of inhibition, the IC50, lay at 1000 nM.
Turning to `CC(C)CCC[C@@H](C)[C@H]1CC[C@H]2[C@@H]3CC=C4C[C@@H](OC(=O)NCCC(=O)NCCC(=O)N[C@@H](CCC(=O)O)C(=O)N[C@@H](CCC(=O)O)C(=O)NCCOCCOCCOCCC(=O)NCCOCCOCCOCCC(=O)NC(C)(C)C(=O)NC(C)(C)C(=O)NC(C)(C)C(=O)NC(C)(C)C(=O)N[C@@H](Cc5c[nH]c6ccccc56)C(=O)N[C@@H](Cc5ccc(O)cc5)C(=O)N[C@@H](C)C(=O)N[C@@H](Cc5c[nH]c6ccccc56)C(=O)N[C@@H](Cc5ccc(O)cc5)C(=O)N[C@@H](C)C(=O)N[C@@H](Cc5c[nH]c6ccccc56)C(=O)N[C@@H](Cc5ccc(O)cc5)C(=O)N5CCC[C@H]5C(=O)N5CCC[C@H]5C(=O)N[C@H](C(=O)N[C@H](C(N)=O)C(C)C)C(C)C)CC[C@]4(C)[C@H]3CC[C@]12C` ({Cholesteryloxycarbonyl-βAla-βAla}-EE[PEG3][PEG3][Aib][Aib][Aib][Aib]WYAWYAWYPPVV-NH2), the figures for the 50% inhibitory concentration (IC50) with SK-BR-3 [19] and in the assay on SK-BR-3 [20] were 0.11 nM and more than 10000 nM, respectively.
